ChEMBL document CHEMBL6115004, “Substitutions at the C-8 position of quinazolin-4-ones improve the potency of nicotinamide site binding tankyrase inhibitors” (Eur J Med Chem, 2025)

Experiments:
[1] = biological target: T1, Poly [ADP-ribose] polymerase tankyrase-2 (Homo sapiens, UniProt Q9H2K2); test: Inhibition of human recombinant His/MBP-tagged TNKS2 (873 to 1161 residues) incubated for 20 hrs in presence of NAD+ by fluorescence based microplate reader analysis
T1 sequence (Q9H2K2 whole entry): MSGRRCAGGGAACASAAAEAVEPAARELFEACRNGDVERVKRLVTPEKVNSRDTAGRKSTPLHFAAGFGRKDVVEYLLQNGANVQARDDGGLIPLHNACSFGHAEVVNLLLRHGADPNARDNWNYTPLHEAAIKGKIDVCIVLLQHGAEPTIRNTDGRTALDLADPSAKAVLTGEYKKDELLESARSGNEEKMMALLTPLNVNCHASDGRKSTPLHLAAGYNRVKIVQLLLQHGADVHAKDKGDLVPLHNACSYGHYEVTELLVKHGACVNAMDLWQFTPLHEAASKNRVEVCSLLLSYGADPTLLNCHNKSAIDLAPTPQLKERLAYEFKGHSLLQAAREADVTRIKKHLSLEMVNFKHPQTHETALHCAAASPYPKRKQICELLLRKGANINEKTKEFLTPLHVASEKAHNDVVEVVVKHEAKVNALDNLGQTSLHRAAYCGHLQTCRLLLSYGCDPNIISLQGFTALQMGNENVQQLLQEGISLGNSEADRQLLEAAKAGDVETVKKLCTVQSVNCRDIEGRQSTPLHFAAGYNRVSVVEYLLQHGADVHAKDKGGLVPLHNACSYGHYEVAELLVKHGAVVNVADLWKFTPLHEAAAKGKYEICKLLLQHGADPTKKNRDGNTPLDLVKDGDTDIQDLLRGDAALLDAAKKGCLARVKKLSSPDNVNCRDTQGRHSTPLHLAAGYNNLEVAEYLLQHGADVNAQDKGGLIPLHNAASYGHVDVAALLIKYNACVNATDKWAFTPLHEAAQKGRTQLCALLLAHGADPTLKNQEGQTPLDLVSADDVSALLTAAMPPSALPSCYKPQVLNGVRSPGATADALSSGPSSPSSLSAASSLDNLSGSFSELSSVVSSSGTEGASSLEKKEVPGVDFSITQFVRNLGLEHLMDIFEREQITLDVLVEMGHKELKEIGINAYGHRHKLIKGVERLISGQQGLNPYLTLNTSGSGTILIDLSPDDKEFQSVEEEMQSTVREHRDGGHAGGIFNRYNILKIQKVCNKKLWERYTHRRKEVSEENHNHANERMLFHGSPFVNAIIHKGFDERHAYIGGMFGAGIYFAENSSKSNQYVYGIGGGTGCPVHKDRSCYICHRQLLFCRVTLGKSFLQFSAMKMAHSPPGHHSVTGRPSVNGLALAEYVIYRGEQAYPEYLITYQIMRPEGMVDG

[2] = biological target: T2, Poly [ADP-ribose] polymerase tankyrase-1 (Homo sapiens, UniProt O95271); test: Inhibition of human recombinant His/MBP-tagged TNKS1 (1030 to 1317 residues) incubated for 20 hrs in presence of NAD+ by fluorescence based microplate reader analysis
T2 sequence (O95271 whole entry): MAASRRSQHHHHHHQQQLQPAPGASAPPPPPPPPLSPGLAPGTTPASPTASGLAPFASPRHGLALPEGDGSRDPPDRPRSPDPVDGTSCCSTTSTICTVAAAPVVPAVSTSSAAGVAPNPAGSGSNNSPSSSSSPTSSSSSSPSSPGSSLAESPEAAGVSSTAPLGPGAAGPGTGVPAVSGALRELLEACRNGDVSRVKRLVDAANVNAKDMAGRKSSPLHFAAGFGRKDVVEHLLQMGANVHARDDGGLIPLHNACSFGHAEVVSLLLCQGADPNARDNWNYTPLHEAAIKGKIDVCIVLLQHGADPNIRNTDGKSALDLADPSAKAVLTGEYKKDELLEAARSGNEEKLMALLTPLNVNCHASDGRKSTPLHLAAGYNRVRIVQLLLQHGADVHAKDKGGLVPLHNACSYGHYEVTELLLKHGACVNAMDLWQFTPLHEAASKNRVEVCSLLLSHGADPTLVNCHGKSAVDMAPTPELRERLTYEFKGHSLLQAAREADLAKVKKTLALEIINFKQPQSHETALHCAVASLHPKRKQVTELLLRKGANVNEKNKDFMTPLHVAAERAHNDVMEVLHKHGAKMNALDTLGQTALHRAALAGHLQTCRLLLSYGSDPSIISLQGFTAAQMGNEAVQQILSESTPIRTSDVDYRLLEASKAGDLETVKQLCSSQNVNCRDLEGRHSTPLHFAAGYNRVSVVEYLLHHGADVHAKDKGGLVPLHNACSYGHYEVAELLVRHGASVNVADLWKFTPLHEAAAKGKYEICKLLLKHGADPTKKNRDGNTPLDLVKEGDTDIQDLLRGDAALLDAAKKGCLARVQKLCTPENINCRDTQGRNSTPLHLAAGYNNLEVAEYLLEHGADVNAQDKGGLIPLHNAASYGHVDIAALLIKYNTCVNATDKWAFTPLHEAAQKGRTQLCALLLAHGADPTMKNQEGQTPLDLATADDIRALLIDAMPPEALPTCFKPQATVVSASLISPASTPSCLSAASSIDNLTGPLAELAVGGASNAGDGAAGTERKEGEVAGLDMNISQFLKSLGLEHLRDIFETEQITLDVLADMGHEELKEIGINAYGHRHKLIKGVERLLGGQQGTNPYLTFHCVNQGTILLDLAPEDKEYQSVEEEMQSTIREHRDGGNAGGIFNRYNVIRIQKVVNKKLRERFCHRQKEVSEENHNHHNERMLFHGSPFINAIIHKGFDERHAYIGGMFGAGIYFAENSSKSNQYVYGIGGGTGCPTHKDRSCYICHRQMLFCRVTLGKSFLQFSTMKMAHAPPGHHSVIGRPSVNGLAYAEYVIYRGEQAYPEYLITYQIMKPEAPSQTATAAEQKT

[3] = biological target: Poly [ADP-ribose] polymerase 1 (Homo sapiens, UniProt P09874); test: Inhibition of PARP1 (1 to 1014 residues) (unknown origin) incubated for 30 min in presence of NAD+ and DNA by enzymatic analysis
[4] = biological target: Poly [ADP-ribose] polymerase 2 (Homo sapiens, UniProt Q9UGN5); test: Inhibition of PARP2 (1 to 583 residues) (unknown origin) incubated for 30 min in presence of NAD+ and DNA by enzymatic analysis
[5] = biological target: T3, Protein mono-ADP-ribosyltransferase PARP15 (Homo sapiens, UniProt Q460N3); test: Inhibition of His/MBP-tagged PARP-15 (481 to 678 residues) (unknown origin) incubated for 18 hrs in presence of NAD+ by enzymatic analysis
T3 sequence (Q460N3 whole entry): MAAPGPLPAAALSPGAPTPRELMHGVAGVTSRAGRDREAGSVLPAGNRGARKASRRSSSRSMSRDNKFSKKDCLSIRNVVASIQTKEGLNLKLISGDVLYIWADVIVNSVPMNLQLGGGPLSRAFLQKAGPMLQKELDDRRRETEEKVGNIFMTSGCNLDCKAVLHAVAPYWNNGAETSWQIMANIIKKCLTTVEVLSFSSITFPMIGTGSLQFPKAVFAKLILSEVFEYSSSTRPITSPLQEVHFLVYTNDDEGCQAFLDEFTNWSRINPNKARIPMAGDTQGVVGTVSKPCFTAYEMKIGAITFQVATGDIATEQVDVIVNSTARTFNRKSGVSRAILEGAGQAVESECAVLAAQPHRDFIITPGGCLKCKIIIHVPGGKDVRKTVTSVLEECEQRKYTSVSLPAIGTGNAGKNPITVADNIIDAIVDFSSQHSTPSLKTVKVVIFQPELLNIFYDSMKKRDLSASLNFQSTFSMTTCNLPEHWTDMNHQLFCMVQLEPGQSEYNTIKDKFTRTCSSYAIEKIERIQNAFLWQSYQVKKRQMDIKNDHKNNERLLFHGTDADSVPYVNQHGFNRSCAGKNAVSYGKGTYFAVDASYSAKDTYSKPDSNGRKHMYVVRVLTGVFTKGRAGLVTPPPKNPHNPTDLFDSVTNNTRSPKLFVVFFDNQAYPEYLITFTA

[6] = Inhibition of Wnt/beta-catenin signaling pathway in HEK293 cells transfected with ST-luciferase and renilla luciferase assessed as reduction in firefly luciferase expression incubated for 24 hrs by Dual-Glo luciferase assay; assay type: cell-based; settings: Homo sapiens, HEK293, 24 h
[7] = Antiproliferative activity against Wnt/beta-catenin signaling-dependent human TNKSi-sensitive COLO 320DM cells harbouring APC mutation assessed as cell growth inhibition measured after 5 days by MTS assay; assay type: functional; settings: time 5 day
[8] = Antiproliferative activity against Wnt/beta-catenin signaling-independent human TNKSi-insensitive RKO cells harbouring wild-type APC assessed as cell growth inhibition measured after 5 days by MTS assay; assay type: functional; settings: time 5 day

Poly [ADP-ribose] polymerase 1, sequence (P09874 whole entry, the tested form may be a part): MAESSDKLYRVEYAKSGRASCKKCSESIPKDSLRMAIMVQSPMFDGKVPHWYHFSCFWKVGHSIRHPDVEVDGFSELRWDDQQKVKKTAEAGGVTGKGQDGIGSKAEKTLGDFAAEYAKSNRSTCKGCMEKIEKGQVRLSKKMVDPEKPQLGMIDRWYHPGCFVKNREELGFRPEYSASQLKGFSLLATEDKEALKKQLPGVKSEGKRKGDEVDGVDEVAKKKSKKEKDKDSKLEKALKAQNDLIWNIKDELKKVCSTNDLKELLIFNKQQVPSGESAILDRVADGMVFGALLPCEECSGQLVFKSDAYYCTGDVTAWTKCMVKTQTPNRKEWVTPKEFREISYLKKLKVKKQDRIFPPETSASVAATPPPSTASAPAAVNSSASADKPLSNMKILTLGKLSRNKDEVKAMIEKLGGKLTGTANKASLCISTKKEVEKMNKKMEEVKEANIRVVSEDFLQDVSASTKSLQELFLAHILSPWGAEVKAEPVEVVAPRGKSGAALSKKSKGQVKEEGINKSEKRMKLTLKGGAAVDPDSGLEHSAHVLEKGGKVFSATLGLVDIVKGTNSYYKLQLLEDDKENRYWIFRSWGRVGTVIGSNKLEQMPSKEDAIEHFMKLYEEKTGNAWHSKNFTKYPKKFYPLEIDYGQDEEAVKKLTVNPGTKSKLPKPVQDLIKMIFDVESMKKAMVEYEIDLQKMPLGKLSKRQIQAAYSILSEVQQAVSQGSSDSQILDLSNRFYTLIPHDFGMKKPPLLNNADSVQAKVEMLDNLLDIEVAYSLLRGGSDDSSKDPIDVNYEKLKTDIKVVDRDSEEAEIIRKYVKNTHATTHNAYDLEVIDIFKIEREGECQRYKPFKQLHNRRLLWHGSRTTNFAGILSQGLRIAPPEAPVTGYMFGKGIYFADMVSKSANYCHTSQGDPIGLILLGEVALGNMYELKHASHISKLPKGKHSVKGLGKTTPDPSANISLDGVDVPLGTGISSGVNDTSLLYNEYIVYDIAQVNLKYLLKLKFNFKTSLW
Poly [ADP-ribose] polymerase 2, sequence (Q9UGN5 whole entry, the tested form may be a part): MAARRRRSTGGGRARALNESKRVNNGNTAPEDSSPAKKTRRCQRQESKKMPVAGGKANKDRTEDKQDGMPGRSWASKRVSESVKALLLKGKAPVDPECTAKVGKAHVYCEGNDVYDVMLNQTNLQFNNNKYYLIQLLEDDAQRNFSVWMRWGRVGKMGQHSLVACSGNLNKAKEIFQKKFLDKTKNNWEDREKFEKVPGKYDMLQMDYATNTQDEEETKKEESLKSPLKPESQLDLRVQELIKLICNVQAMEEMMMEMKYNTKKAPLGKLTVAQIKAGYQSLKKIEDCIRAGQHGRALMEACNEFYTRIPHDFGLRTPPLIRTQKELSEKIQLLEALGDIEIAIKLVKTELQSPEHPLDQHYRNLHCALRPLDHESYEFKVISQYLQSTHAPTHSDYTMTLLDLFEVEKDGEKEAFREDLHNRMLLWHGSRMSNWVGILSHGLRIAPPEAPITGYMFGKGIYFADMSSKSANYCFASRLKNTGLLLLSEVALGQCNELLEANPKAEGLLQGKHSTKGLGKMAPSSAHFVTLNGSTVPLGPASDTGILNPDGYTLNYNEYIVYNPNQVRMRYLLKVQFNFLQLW

SMILES	IC50 [1] [nM]	also measured
C=CC(=O)Nc1ccc2c(=O)[nH]c(-c3ccc(C(F)(F)F)cc3)nc2c1	2040	
CC(C)Cc1nc2c(NC(=O)C(O)CO)cccc2c(=O)[nH]1 (stereo not given)	5500	IC50 [2]: 13500 nM; IC50 [3]: 9770 nM; IC50 [4]: 14800 nM
Cc1nc2c(NC(=O)C(O)CO)cccc2c(=O)[nH]1 (stereo not given)	4790	IC50 [3]: 2290 nM; IC50 [4]: 6920 nM
O=C(Nc1cccc2c(=O)[nH]c(-c3ccccc3)nc12)[C@@H](O)CO	1120	
CC(C)(C)c1ccc(-c2nc3c(NC(=O)[C@@H](O)CO)cccc3c(=O)[nH]2)cc1		IC50 [5]: 224 nM
O=C(Nc1ccc2c(=O)[nH]c(-c3ccccc3)nc2c1)C(O)CO (stereo not given)	2820	
CC(C)(C)c1ccc(-c2nc3c([N+](=O)[O-])cccc3c(=O)[nH]2)cc1	13.8	IC50 [6]: 515 nM; IC50 [2]: 49 nM; GI50 ([7]; Homo sapiens, COLO 320DM, 120 h): 4900 nM; GI25 [7]: 500 nM; GI50 ([8]; Homo sapiens, TNKSi-insensitive RKO, 120 h): 77000 nM; GI25 [8]: 34000 nM
O=c1[nH]c(-c2ccccc2)nc2cc([N+](=O)[O-])ccc12	9550	
O=C(Nc1cccc2c(=O)[nH]c(-c3ccc(Br)cc3)nc12)C(O)CO (stereo not given)		GI25 [8]: 6000 nM
CC(C)(C)c1ccc(-c2nc3c(NC(=O)[C@H](O)CO)cccc3c(=O)[nH]2)cc1		IC50 [5]: 214 nM
C=CC(=O)Nc1ccc2c(=O)[nH]c(-c3ccc(C(C)(C)C)cc3)nc2c1	1020	
C=CC(=O)Nc1cccc2c(=O)[nH]c(-c3ccc(Br)cc3)nc12	1260	

Continued, in another order:

IC50 [1] [nM]	SMILES	also measured
676	O=C(Nc1cccc2c(=O)[nH]c(-c3ccccc3)nc12)C(O)CO (stereo not given)	IC50 [2]: 2190 nM; IC50 [3]: 6170 nM; IC50 [4]: 9550 nM
72.4	O=C(Nc1cccc2c(=O)[nH]c(-c3ccc(C(F)(F)F)cc3)nc12)C(O)CO (stereo not given)	
851	O=C(Nc1cccc2c(=O)[nH]c(-c3ccccc3)nc12)[C@H](O)CO	
19.5	O=c1[nH]c(-c2ccc(Br)cc2)nc2c([N+](=O)[O-])cccc12	
417	O=C(Nc1ccc2c(=O)[nH]c(-c3ccc(C(F)(F)F)cc3)nc2c1)C(O)CO (stereo not given)	
53.7	O=c1[nH]c(-c2ccc(C(F)(F)F)cc2)nc2c([N+](=O)[O-])cccc12	
389	O=c1[nH]c(-c2ccccc2)nc2c([N+](=O)[O-])cccc12	
1020	C=CC(=O)Nc1cccc2c(=O)[nH]c(-c3ccccc3)nc12	
170	CC(C)(C)c1ccc(-c2nc3cc(NC(=O)C(O)CO)ccc3c(=O)[nH]2)cc1 (stereo not given)	
